Laboratory results reported in ChEMBL document CHEMBL1201862, “PubChem BioAssay data set” (2004).
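48-hour exposure; five concentrations; linearly interpolated endpoints. GI50: concentration for 50% inhibition of growth.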 Activity calls are given as the source filed them. Rule as the data show it: active = GI50 up to about 1.1 µM and inactive = higher.

What was measured:
Assay in all cases: growth of human tumour cells (NCI), 48 h
786-0 = test system: 786-0
A498 = test system: A498
A549 = test system: A549
ACHN = test system: ACHN
CAKI-1 = test system: CAKI-1
CCRF-CEM = test system: CCRF-CEM
COLO 205 = test system: COLO 205
DLD-1 = test system: DLD-1
DMS-114 = test system: DMS-114
DMS-273 = test system: DMS-273
EKVX = test system: EKVX
HCC 2998 = test system: HCC 2998
HCT-116 = test system: HCT-116
HCT-15 = test system: HCT-15
HL-60 = test system: HL-60
HOP-18 = test system: HOP-18
HOP-62 = test system: HOP-62
HOP-92 = test system: HOP-92
HT-29 = test system: HT-29
IGROV-1 = test system: IGROV-1
K562 = test system: K562
KM-20L2 = test system: KM-20L2
KM12 = test system: KM12
LOX IMVI = test system: LOX IMVI
LXFL 529 = test system: LXFL 529
M14 = test system: M14
M19-MEL = test system: M19-MEL
MOLT-4 = test system: MOLT-4
Malme-3M = test system: Malme-3M
NCI-H226 = test system: NCI-H226
NCI-H23 = test system: NCI-H23
NCI-H460 = test system: NCI-H460
NCI-H522 = test system: NCI-H522
OVCAR-3 = test system: OVCAR-3
OVCAR-4 = test system: OVCAR-4
OVCAR-5 = test system: OVCAR-5
OVCAR-8 = test system: OVCAR-8
RPMI-8226 = test system: RPMI-8226
RXF 393 = test system: RXF 393
SF-268 = test system: SF-268
SF-295 = test system: SF-295
SF-539 = test system: SF-539
SK-MEL-28 = test system: SK-MEL-28
SK-MEL-2 = test system: SK-MEL-2
SK-MEL-5 = test system: SK-MEL-5
SK-OV-3 = test system: SK-OV-3
SN12C = test system: SN12C
SNB-19 = test system: SNB-19
SNB-75 = test system: SNB-75
SNB-78 = test system: SNB-78
SR = test system: SR
SW-620 = test system: SW-620
TK-10 = test system: TK-10
U-251 = test system: U-251
UACC-257 = test system: UACC-257
UACC-62 = test system: UACC-62
UO-31 = test system: UO-31
MCF7 = test system: MCF7
NCI/ADR-RES = test system: NCI/ADR-RES
XF498 = test system: XF498

Measured: GI50

CCCCCCC(=O)C/C(CCC(=O)N(Cc1ccccc1)Cc1ccccc1)=N\Nc1ccc([N+](=O)[O-])cc1[N+](=O)[O-]
42.5 µM: HCT-15
inactive: 786-0 58.5 µM | A498 62.8 µM | A549 46.1 µM | ACHN 27.3 µM | CAKI-1 > 100 µM | CCRF-CEM 17.3 µM | COLO 205 41.1 µM | DLD-1 42 µM | DMS-114 17 µM | DMS-273 55.8 µM | EKVX 29.1 µM | HCC 2998 73.6 µM | HCT-116 35.1 µM | HL-60 32.2 µM | HOP-18 55.1 µM | HOP-62 > 100 µM | HOP-92 51.1 µM | HT-29 89.9 µM | IGROV-1 > 100 µM | K562 20.3 µM | KM-20L2 56.8 µM | KM12 46 µM | LOX IMVI 33.3 µM | LXFL 529 31 µM | M14 57.8 µM | M19-MEL 55.7 µM | MOLT-4 > 10 µM | Malme-3M > 100 µM | NCI-H226 > 100 µM | NCI-H23 38.7 µM | NCI-H460 71.1 µM | NCI-H522 23.7 µM | OVCAR-3 35.4 µM | OVCAR-4 40.1 µM | OVCAR-5 > 100 µM | OVCAR-8 54.7 µM | RPMI-8226 31.9 µM | RXF 393 > 100 µM | SF-268 39.1 µM | SF-295 55.1 µM | SF-539 54.5 µM | SK-MEL-28 99.3 µM | SK-MEL-2 83.4 µM | SK-MEL-5 55.5 µM | SK-OV-3 > 100 µM | SN12C 56.1 µM | SNB-19 > 100 µM | SNB-75 39.1 µM | SNB-78 > 100 µM | SR > 10 µM | SW-620 55.6 µM | TK-10 > 100 µM | U-251 54.1 µM | UACC-257 48 µM | UACC-62 16.2 µM | UO-31 51.6 µM

O=S(=O)(O)c1cc(/N=[N+](\[O-])c2ccc(/N=N/c3ccccc3)cc2S(=O)(=O)O)ccc1/C=C/c1ccc(/N=[N+](\[O-])c2ccc(/N=N/c3ccccc3)cc2S(=O)(=O)O)cc1S(=O)(=O)O
> 100 µM: HCT-15
inactive: A498 > 100 µM | A549 > 100 µM | CCRF-CEM > 95.3 µM | COLO 205 > 100 µM | DLD-1 > 100 µM | DMS-114 > 100 µM | DMS-273 > 95.3 µM | EKVX > 100 µM | HCC 2998 > 100 µM | HCT-116 > 100 µM | HL-60 > 100 µM | HOP-18 > 100 µM | HOP-62 > 100 µM | HOP-92 > 100 µM | HT-29 > 100 µM | IGROV-1 > 100 µM | K562 > 100 µM | KM12 > 100 µM | LOX IMVI > 100 µM | M19-MEL > 100 µM | MCF7 > 100 µM | MOLT-4 > 100 µM | Malme-3M > 100 µM | NCI-H226 > 32.6 µM | NCI-H23 > 100 µM | NCI-H460 > 100 µM | NCI-H522 > 100 µM | NCI/ADR-RES > 100 µM | OVCAR-3 > 100 µM | OVCAR-4 > 87.3 µM | OVCAR-5 > 100 µM | OVCAR-8 > 100 µM | RPMI-8226 > 100 µM | RXF 393 > 100 µM | SF-268 > 100 µM | SF-295 > 58.3 µM | SF-539 > 31.6 µM | SK-MEL-28 > 100 µM | SK-MEL-2 > 100 µM | SK-MEL-5 > 100 µM | SK-OV-3 > 100 µM | SN12C > 100 µM | SNB-19 > 100 µM | SNB-75 72.8 µM | SNB-78 > 100 µM | SW-620 > 100 µM | U-251 > 100 µM | UACC-257 > 100 µM | UACC-62 > 100 µM | UO-31 > 100 µM | XF498 > 100 µM
